Reference: patent US20250262263A1, “METHOD AND COMPOSITIONS FOR THE USE OF BOTANICAL EXTRACTS IN THE TREATMENT OF VIRAL INFECTIONS” (priority 2024, published 2025)

Tested on: VACV
Type: cell-based, vaccinia virus
Details: 100 pfu VACV, 48 HPI

## C=C(C)[C@@H]1CC[C@]2(C)CC[C@]3(C)[C@H](CC[C@@H]4[C@@]5(C)CC[C@H](O)C(C)(C)[C@@H]5CC[C@]43C)[C@@H]12 [lupeol]
  antiviral activity (VACV plaques): did not show suitable antiviral activity
